From USRE30241E, “Esters of 3-(hydroxy or hydroxymethyl)-4-hydroxyphenyl aminomethyl ketones” (Sterling Drug Inc., priority 1970, dated 1980) come the findings set out here.

Series [1] can be described thus: Solubility and pH of salts.
Series [2] relates to guinea pig bronchioles constricted by carbachol. Nature of the series: Bronchodilator Test Method II, in vitro perfused guinea pig lung. As to the method:
In this method bronchodilator activity in vitro was determined by testing the effect of graded doses of the test compounds on guinea pig bronchioles constricted by carbachol, using the technique reported by Sollman and von Oettingen, Proc. Soc, Exp. Biol. Med., 25,692 (1928) as modified by Tainter, Pedden, and James, J. Pharm. Exp. Ther., 51, 371 (1934) and by Luduena, von Euler, Tullar, and Lands, Arch. intern. Pharmacol., III, 392 (1957).

Series [3] has as its system carbachol- or histamine-induced bronchoconstriction. The series is described as follows: Bronchodilator Test Method I, anesthetized dog, intravenous activity. To be noted: Canis lupus familiaris, read-out: Bronchodilatation; for inhibition in vivo at 0.025 mg/kg: 25 mcg/kg i.v.; for inhibition in vivo at 0.1 mg/kg: 100 mcg/kg i.v.; for inhibition in vivo at 0.0005 mg/kg: 0.5 mcg/kg i.v.; for inhibition in vivo at 0.006 mg/kg: 6.0 mcg/kg i.v. The class given is in vivo. The method, boiled down: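 Pentobarbital-anesthetized (30 mg/kg i.v.), open-chest, artificially ventilated dogs were given i.v. carbachol (4-6 µg/kg) or histamine diphosphate (35-45 µg/kg). Test compound was given i.v. mixed with, after, or 1-10 min before the constrictor.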

Series [4] deals with heart rate. The series is described as follows: Cardiovascular studies: effect on the heart rate in the anesthetized dog. The class given is in vivo. As to the method: The effect of a rapid intravenous injection on the heart rate the heart rate was conducted in anesthetized dogs under normal respiration. A few open-chest dogs were also tested. Increase in heart rate was measured by using an electrocardiograph attached to the dog. Readings were taken every 0.5-1 minute for the first 10 minutes and every 2-5 minutes thereafter until recovery. In some cases, several doses and more than one compound were tested alternately in the same dog. The blood pressure effect was simultaneously recorded.

Series [5] deals with carbachol- or histamine-induced bronchoconstriction. Nature of the series: Bronchodilator Test Method I, anesthetized dog, intraduodenal activity. The class given is in vivo. To be noted: Canis lupus familiaris, read-out: Bronchodilation; for inhibition in vivo at 0.005 mg/kg: 5 mcg/kg (salt) intraduodenal; for inhibition in vivo at 0.04 mg/kg: 40 mcg/kg (salt) intraduodenal; for inhibition in vivo at 0.16 mg/kg: 160 mcg/kg (salt) intraduodenal. The method, boiled down: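 Pentobarbital-anesthetized (30 mg/kg i.v.) open-chest dogs of 9-18 kg, artificially ventilated; airway pressure recorded via tracheal cannula transducer. Test solution injected intraduodenally; from 5 min, i.v. carbachol (4-6 μg/kg) or histamine diphosphate (35-45 μg/kg) challenges every 30-60 min gauged degree and duration of bronchodilation.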

[6] abbreviates: 1 percent solution in dimethyl sulfoxide.
The mark [7] stands for this setting: 1 percent solution in glycerol formal.

The structures appear in SMILES notation. Where a name gives a salt, the structure may show the parent alone. Read-outs that look alike come from different tables or passages of the source.

For orientation: solubility means the concentration that dissolves in the medium under given conditions. Regarding `Cc1ccc(C(=O)Oc2ccc(C(=O)CNC(C)(C)C)cc2OC(=O)c2ccc(C)cc2)cc1` [3,4-bis(p-toluyloxy)phenyl tert-butylaminomethyl ketone hydrochloride], the solubility in series [1] (water) is below 1 mg/mL.

As to `CC(C)(C)NCC(=O)c1ccc(OC(=O)C(C)(C)C)c(OC(=O)C(C)(C)C)c1.Cl` [3,4-bis(pivalyloxy)phenyl tert-butylaminomethyl ketone hydrochloride], the solubility in series [1] (water) is at least 10 mg/mL.

With `CCCC(=O)Oc1ccc(C(O)CNC(C)(C)C)cc1OC(=O)CCC.Cl` (stereo not drawn) [Example 1, 3,4-bis(butyryloxy)-alpha-(tert-butylaminomethyl)benzyl alcohol hydrochloride], the “pH of a 1 percent aqueous solution” value in series [1] (1 percent aqueous solution of the salt) worked out at 6.0. Also, in series [1] (1 percent aqueous solution, N/10 sodium hydroxide to pH 7.0), the “precipitation on raising pH to 7.0” value is “a precipitate formed”. Further, in series [1] (water), the solubility was at least 200 mg/mL. For the same molecule, the ED50 in series [2] (carbachol (Doryl) 1:5 million) was 0.23 µg (base). Also, the “Duration, Mean” value in series [2] (dose 0.5 mcg (base)) is 9 ± 1.0 min.

Consider `CCC(C)CC(=O)Oc1ccc(C(O)CNC(C)(C)C)cc1OC(=O)CC(C)CC.Cl` (stereo not drawn) [Example 6, 3,4-bis(3-methylpentanoyloxy)-alpha-(tert-butylaminomethyl)benzyl alcohol hydrochloride], for which the solubility in series [1] (water) was at least 50 mg/mL. Further, the ED50 in series [2] (carbachol (Doryl) 1:5 million) is 1.3 µg (base). Also, the “Duration, Mean” value in series [2] (dose 3.2 mcg (base)) is reported as 43 ± 3.7 min.

Take `CCCC(C)(C)C(=O)Oc1ccc(C(O)CNC(C)(C)C)cc1OC(=O)C(C)(C)CCC` (stereo not drawn) [Example 8, 3,4-bis(2,2-dimethylpentanoyloxy)-alpha-(tert-butylaminomethyl)benzyl alcohol]: the solubility in series [1] (water) was at least 50 mg/mL.

`CC(C)(C)NCC(O)c1ccc(OC(=O)c2ccccc2)c(OC(=O)c2ccccc2)c1.Cl` (stereo not drawn) [Example 29, 3,4-bis(benzoyloxy)-alpha-(tert-butylaminomethyl)benzyl alcohol hydrochloride]: the “precipitation on dilution with three volumes of water” value in series [1] (setting [6]) and in series [1] (setting [7]) was “no precipitate formed” throughout. The solubility in series [1] (dimethyl sulfoxide, organic solvent or mixture) is at least 10 mg/mL; in series [1] (glycerol formal, organic solvent or mixture), at least 10 mg/mL. Moreover, the ED50 in series [2] (carbachol (Doryl) 1:5 million) is 1.1 µg (base). Also, the “Duration, Mean” value in series [2] (dose 3.2 mcg (base)) was 34 ± 6.4 min.

For `COc1ccc(C(=O)Oc2ccc(C(O)CNC(C)(C)C)cc2OC(=O)c2ccc(OC)cc2)cc1.Cl` (stereo not drawn) [Example 33, 3,4-bis(p-anisoyloxy)-alpha-(tert-butylaminomethyl)benzyl alcohol hydrochloride], the “precipitation on dilution with three volumes of water” value in series [1] (setting [6]) and in series [1] (setting [7]) was “no precipitate formed” in each case. Also, the solubility in series [1] (polyethyleneglycol 200, organic solvent or mixture) is below 10 mg/mL. Also, in series [2] (carbachol (Doryl) 1:5 million), the ED50 was 6.9 µg (base). Besides, the “Duration, Mean” value in series [2] (dose 10 mcg (base)) worked out at 32 ± 5 min.

On to `CC(C)CC(=O)Oc1ccc(C(O)CNC(C)(C)C)cc1O` (stereo not drawn) [Example 58, 3-hydroxy-4-(isovaleryloxy)-alpha-(tert-butylaminomethyl)benzyl alcohol methanesulfonate], for which the solubility in series [1] (water) is at least 50 mg/mL. The ED50 in series [2] (carbachol (Doryl) 1:5 million) is 1.4 µg (base). Besides, the “Duration, Mean” value in series [2] (dose 2.4 mcg (base)) worked out at 12 ± 2.5 min.

For `Cc1ccc(C(=O)Oc2ccc(C(O)CNC(C)(C)C)cc2O)cc1` (stereo not drawn) [Example 69, 3-hydroxy-4-(p-toluyloxy)-alpha-(tert-butylaminomethyl)benzyl alcohol methanesulfonate], the solubility in series [1] (water) was at least 50 mg/mL.

On to `Cc1cccc(C(=O)Oc2ccc(C(O)CNC(C)(C)C)cc2O)c1` (stereo not drawn) [Example 139, 3-hydroxy-4-(m-toluyloxy)-alpha-(tert-butylaminomethyl)benzyl alcohol methanesulfonate], for which the inhibition in vivo at 0.025 mg/kg in series [3] (5 min, 5 min) was 81%; in series [3] (0.5 h, 30 min), 22%; in series [3] (1 h, 60 min), 24%; in series [3] (2 h, 120 min), 0%. Besides, the inhibition in vivo at 0.1 mg/kg in series [3] (5 min, 5 min) stood at 74%; in series [3] (0.5 h, 30 min) it was 63%; in series [3] (1 h, 60 min), 22%; in series [3] (2 h, 120 min), 25%; in series [3] (3 h, 180 min) it was 9%; in series [3] (5 h, 300 min), 10%. Further, the “Mean Maximal Increase in the Heart Rate” value in series [4] (5 mcg/kg (salt) i.v.) was 6 Beats/Minute; in series [4] (25 mcg/kg (salt) i.v.), 28 Beats/Minute; in series [4] (50 mcg/kg (salt) i.v.), 35 Beats/Minute. The ED50 in series [2] (carbachol (Doryl) 1:5 million) was 2.64 µg (base). For the same molecule, the “Duration, Mean” value in series [2] (dose 6 mcg (base)) was 29.8 ± 4.4 min.

In the case of `COc1ccc(C(=O)Oc2cc(C(O)CNC(C)(C)C)ccc2OC(C)=O)cc1` (stereo not drawn) [Example 149, 3-(p-anisoyloxy)-4-acetoxy-alpha-(tert-butylaminomethyl)benzyl alcohol methanesulfonate], the inhibition in vivo at 0.0005 mg/kg in series [3] (5 min, 5 min) amounted to 54%; in series [3] (0.5 h, 30 min), 19%; in series [3] (1 h, 60 min), 19%. The inhibition in vivo at 0.006 mg/kg in series [3] (5 min, 5 min) was 100%; in series [3] (0.5 h, 30 min) it was 32%; in series [3] (1 h, 60 min), 24%. The inhibition in vivo at 0.005 mg/kg came out at 0% in series [5] (5 min, 5 min); 7% in series [5] (0.5 h, 30 min); 13% in series [5] (1 h, 60 min); 5% in series [5] (2 h, 120 min); 9% in series [5] (3 h, 180 min); 0% in series [5] (4 h, 240 min). Also, the inhibition in vivo at 0.04 mg/kg came out at 78% in series [5] (5 min, 5 min); 52% in series [5] (0.5 h, 30 min); 44% in series [5] (1 h, 60 min); 31% in series [5] (2 h, 120 min); 35% in series [5] (4 h, 240 min); 35% in series [5] (5 h, 300 min). Further, the inhibition in vivo at 0.16 mg/kg in series [5] (5 min, 5 min) is 72%; in series [5] (0.5 h, 30 min) it was 61%; in series [5] (1 h, 60 min) it was 56%; in series [5] (2 h, 120 min), 11%; in series [5] (3 h, 180 min) it was 22%; in series [5] (4 h, 240 min) it was 23%. The “Mean Maximal Increase in the Heart Rate” value in series [4] (0.8 mcg/kg (salt) i.v.) worked out at 19 Beats/Minute; in series [4] (6.4 mcg/kg (salt) i.v.), 47 Beats/Minute; in series [4] (32 mcg/kg (salt) i.v.), 70 Beats/Minute. Further, in series [2] (Doryl conc. 1:10 million), the ED50 was 0.91 µg (base). Also, in series [2] (dose 2 mcg (base), Doryl conc. 1:10 million), the “Duration, Mean” value is 13.2 ± 1.9 min.
